Experimental findings from US20240199546A1, “INHIBITORS OF SOLUTE CARRIER FAMILY 6A MEMBER 19 (SLC6A19) AND METHODS OF USE THEREOF” (Maze Therapeutics, Inc., priority 2022, published 2024) are described below.

Bounds are passed on as bounds.

As usually defined, the IC50 is the point on the concentration scale where inhibition reaches its midpoint.

Experiment [1] concerns the target T1, human SLC6A19 and TMEM27 (Homo sapiens, UniProt Q695T7).
T1 construct: expressed in transfected cells
T1 sequence (Q695T7 1-634): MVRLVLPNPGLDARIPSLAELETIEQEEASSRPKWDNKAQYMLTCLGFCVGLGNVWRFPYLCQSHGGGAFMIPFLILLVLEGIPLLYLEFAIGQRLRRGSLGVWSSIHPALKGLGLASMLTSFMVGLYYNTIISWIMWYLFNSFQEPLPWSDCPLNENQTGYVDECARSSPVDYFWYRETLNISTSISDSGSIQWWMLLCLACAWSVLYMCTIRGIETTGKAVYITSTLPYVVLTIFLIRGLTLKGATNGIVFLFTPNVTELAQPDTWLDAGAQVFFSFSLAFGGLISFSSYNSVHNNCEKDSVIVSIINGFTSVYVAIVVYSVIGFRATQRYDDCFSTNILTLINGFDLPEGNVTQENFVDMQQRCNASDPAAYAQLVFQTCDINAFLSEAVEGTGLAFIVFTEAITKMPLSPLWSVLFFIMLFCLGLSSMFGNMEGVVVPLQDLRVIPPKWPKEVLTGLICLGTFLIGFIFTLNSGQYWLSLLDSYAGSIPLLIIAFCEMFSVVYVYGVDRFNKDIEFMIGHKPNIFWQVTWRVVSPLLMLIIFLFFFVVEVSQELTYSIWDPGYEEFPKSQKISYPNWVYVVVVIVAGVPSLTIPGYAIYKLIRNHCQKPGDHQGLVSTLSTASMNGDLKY
T1 sequence (Q9HBJ8 15-222 partner): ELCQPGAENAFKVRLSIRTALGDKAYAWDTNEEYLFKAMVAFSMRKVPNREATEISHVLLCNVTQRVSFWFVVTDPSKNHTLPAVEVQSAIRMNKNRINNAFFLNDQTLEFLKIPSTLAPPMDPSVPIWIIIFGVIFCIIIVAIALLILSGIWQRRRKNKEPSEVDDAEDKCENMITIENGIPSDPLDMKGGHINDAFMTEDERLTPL
Description: Radiolabelled (3H) leucine uptake in CHO cells with doxycycline-inducible expression of human SLC6A19 and TMEM27 (Example B-1). It is filed as cell-based. The settings on record: CHO cells with doxycycline-inducible expression of human SLC6A19 and TMEM27, read-out: SLC6A19_Radioligand Uptake Assay IC50. The method in brief: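 CHO cells were induced with doxycycline for 18 h at 37 °C, washed in HBSS, then exposed to compounds for 1 h: 8-point, 3-fold dilutions in duplicate, 0.5% DMSO final. Uptake measured by scintillation counting after 2 h shaking. Activity normalized with positive control as 0% and DMSO as 100%.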

The target of experiment [2] is T1, human SLC6A19 and TMEM27. The experiment in a line: 13C6,15N-isoleucine uptake in CHO cells with doxycycline-inducible expression of human SLC6A19 and TMEM27, RapidFire mass spectrometry (Example B-2). It is filed as cell-based. Conditions: read-out: SLC6A19_RapidFire Uptake Assay IC50. An outline of the steps:
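CHO cells induced overnight with doxycycline to express human SLC6A19 plus TMEM27; 20 min preincubation with compound (10-point 2-fold series, duplicate) at 37 °C in HEPES buffer pH 7.2, then 20 min with 13C6,15N-isoleucine. Intracellular label quantified by RapidFire MS against 13C-leucine standard; positive control defined 100% inhibition.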

For the molecule `O=C(NCc1cc2cc(Cl)c(OCc3ccccn3)cc2[nH]1)C1CC1` [Compound 503, N-((5-chloro-6-(pyridin-2-ylmethoxy)-1H-indol-2-yl)methyl)cyclopropanecarboxamide], the 50% inhibitory concentration (IC50) in experiment [1] is 317 nM; in experiment [2], 66.7 nM.

Regarding `CC(=O)NCc1cc2cc(F)c(OCc3ccno3)cc2[nH]1` [Compound 220, N-((5-fluoro-6-(isoxazol-5-ylmethoxy)-1H-indol-2-yl)methyl)acetamide], the IC50 in experiment [1] was 1550 nM; in experiment [2] it was 3480 nM.

On to `CC1(C(=O)NCc2cc3cc(Cl)c(OCc4ncccc4F)cc3[nH]2)CC1` [Compound 26, N-((5-chloro-6-((3-fluoropyridin-2-yl)methoxy)-1H-indol-2-yl)methyl)-1-methylcyclopropane-1-carboxamide], for which the IC50 in experiment [1] came out at 149 nM; in experiment [2], 166 nM.

As to `O=C(NCc1cc2cc(Cl)c(NCc3ccon3)cc2[nH]1)N1CCCC1` [Compound 413, N-((5-chloro-6-((isoxazol-3-ylmethyl)amino)-1H-indol-2-yl)methyl)pyrrolidine-1-carboxamide], the IC50 in experiment [1] was 276 nM; in experiment [2], 239 nM.

Turning to `CC1(C(=O)NCc2cc3ccc(SCc4ccon4)cc3[nH]2)CC1` [Compound 196, N-((6-((isoxazol-3-ylmethyl)thio)-1H-indol-2-yl)methyl)-1-methylcyclopropanecarboxamide], the half-maximal inhibitory concentration (IC50) was 207 nM in experiment [1] and 460 nM in experiment [2].

As for `O=C(NCc1cc2cc(OC(F)(F)F)c(CCc3cscn3)cc2[nH]1)N1CCCC1` [Compound 419, N-((6-(2-(thiazol-4-yl)ethyl)-5-(trifluoromethoxy)-1H-indol-2-yl)methyl)pyrrolidine-1-carboxamide], the IC50 in experiment [1] was determined as 435 nM; in experiment [2], 159 nM.

In the case of `CC1(C(=O)NCc2cc3cc(Cl)c(OCc4csc(Cl)c4)cc3[nH]2)CC1` [Compound 324, N-((5-chloro-6-((5-chlorothiophen-3-yl)methoxy)-1H-indol-2-yl)methyl)-1-methylcyclopropane-1-carboxamide], the IC50 in experiment [1] was determined as 1120 nM; in experiment [2], 476 nM.

For `CC1(C(=O)NCc2cc3cc(Cl)c(OCc4ccc(Cl)s4)cc3[nH]2)CC1` [Compound 320, N-((5-chloro-6-((5-chlorothiophen-2-yl)methoxy)-1H-indol-2-yl)methyl)-1-methylcyclopropane-1-carboxamide], the figures for the IC50 in experiment [1] and in experiment [2] were 1080 nM and 480 nM, respectively.

For the molecule `Cn1ncc(COc2cc3[nH]c(CNC(=O)N4CCC4)cc3cc2F)n1` [Compound 409, N-((5-fluoro-6-((2-methyl-2H-1,2,3-triazol-4-yl)methoxy)-1H-indol-2-yl)methyl)azetidine-1-carboxamide], the IC50 in experiment [1] came out at 1180 nM; in experiment [2], 2290 nM.

`CC1(C(=O)NCc2cc3cc(Cl)c(OCc4ccc(F)cn4)cc3[nH]2)CC1` [Compound 28, N-((5-chloro-6-((5-fluoropyridin-2-yl)methoxy)-1H-indol-2-yl)methyl)-1-methylcyclopropane-1-carboxamide]: the IC50 in experiment [1] was found to be 170 nM; in experiment [2] it was 79 nM.

Consider `CC1(C(=O)NCc2cc3cc(Cl)c(CCn4cccn4)cc3[nH]2)CC1` [Compound 590, N-((6-(2-(1H-pyrazol-1-yl)ethyl)-5-chloro-1H-indol-2-yl)methyl)-1-methylcyclopropane-1-carboxamide], for which the half-maximal inhibitory concentration (IC50) in experiment [1] was 145 nM; in experiment [2], 51.8 nM.

As for `CC1(C(=O)NCc2cc3cc(Cl)c(CCc4ccon4)cc3[nH]2)CC1` [Compound 150, N-((5-chloro-6-(2-(isoxazol-3-yl)ethyl)-1H-indol-2-yl)methyl)-1-methylcyclopropane-1-carboxamide], the IC50 came to 120 nM in experiment [1] and 36 nM in experiment [2].

Take `O=C(NCc1cc2cc(F)c(OCc3ccno3)cc2[nH]1)N1CCC1` [Compound 401, N-((5-fluoro-6-(isoxazol-5-ylmethoxy)-1H-indol-2-yl)methyl)azetidine-1-carboxamide]: the figures for the concentration for half-maximal inhibition (IC50) in experiment [1] and in experiment [2] were 342 nM and 534 nM, respectively.

`CC(=O)NCc1cc2cc(Cl)c(NCc3ccon3)cc2[nH]1` [Compound 227, N-((5-chloro-6-((isoxazol-3-ylmethyl)amino)-1H-indol-2-yl)methyl)acetamide]: the IC50 in experiment [1] amounted to 317 nM; in experiment [2] it was 486 nM.

`CC1(C(=O)NCc2cc3cc(F)c(NCc4ccon4)cc3[nH]2)CC1` [Compound 524, N-((5-fluoro-6-((isoxazol-3-ylmethyl)amino)-1H-indol-2-yl)methyl)-1-methylcyclopropane-1-carboxamide]: the IC50 in experiment [1] was 400 nM; in experiment [2], 570 nM.

As to `O=C(NCc1cc2cc(F)c(NCc3ccon3)cc2[nH]1)N1CCC1` [Compound 470, N-((5-fluoro-6-((isoxazol-3-ylmethyl)amino)-1H-indol-2-yl)methyl)azetidine-1-carboxamide], the concentration for half-maximal inhibition (IC50) was 1310 nM in experiment [1] and 1820 nM in experiment [2].

For the molecule `Cn1ncc(COc2cc3[nH]c(CNC(=O)N4CCCC4)cc3cc2F)n1` [Compound 410, N-((5-fluoro-6-((2-methyl-2H-1,2,3-triazol-4-yl)methoxy)-1H-indol-2-yl)methyl)pyrrolidine-1-carboxamide], the half-maximal inhibitory concentration (IC50) in experiment [1] was found to be 386 nM; in experiment [2], 578 nM.

As for `Cc1nc(COc2cc3[nH]c(CNC(=O)N4CCCC4)cc3cc2Cl)co1` [Compound 411, N-((5-chloro-6-((2-methyloxazol-4-yl)methoxy)-1H-indol-2-yl)methyl)pyrrolidine-1-carboxamide], the IC50 stood at 313 nM in experiment [1] and 217 nM in experiment [2].

Take `CC(=O)NCc1cc2cc(F)c(OCc3coc(C)n3)cc2[nH]1` [Compound 236, N-((5-fluoro-6-((2-methyloxazol-4-yl)methoxy)-1H-indol-2-yl)methyl)acetamide]: the 50% inhibitory concentration (IC50) in experiment [1] was 2990 nM; in experiment [2], over 19300 nM.

On to `COc1cc2cc(CNC(=O)C3(C)CC3)[nH]c2cc1CCc1cscn1` [Compound 631, N-((5-methoxy-6-(2-(thiazol-4-yl)ethyl)-1H-indol-2-yl)methyl)-1-methylcyclopropane-1-carboxamide], for which the half-inhibitory concentration (IC50) in experiment [1] worked out at 210 nM; in experiment [2], 149 nM.

On to `CNC(=O)NCc1cc2cc(F)c(OCc3cocn3)cc2[nH]1` [Compound 215, 1-((5-fluoro-6-(oxazol-4-ylmethoxy)-1H-indol-2-yl)methyl)-3-methylurea], for which the IC50 in experiment [1] is 977 nM; in experiment [2], 3890 nM.

For the molecule `CC1(C(=O)NCc2cc3cc(F)c(OCc4ccc5ccoc5c4)cc3[nH]2)CC1` [Compound 460, N-((6-(benzofuran-6-ylmethoxy)-5-fluoro-1H-indol-2-yl)methyl)-1-methylcyclopropane-1-carboxamide], the figures for the IC50 in experiment [1] and in experiment [2] were 1360 nM and 732 nM, respectively.

Regarding `O=C(NCc1cc2cc(OC(F)(F)F)c(OCc3cscn3)cc2[nH]1)N1CCC1` [Compound 421, N-((6-(thiazol-4-ylmethoxy)-5-(trifluoromethoxy)-1H-indol-2-yl)methyl)azetidine-1-carboxamide], the concentration for half-maximal inhibition (IC50) was found to be 359 nM in experiment [1] and 131 nM in experiment [2].

With `CC1(C(=O)NCc2cc3c(F)cc(OCc4cscn4)cc3[nH]2)CC1` [Compound 29, N-((4-fluoro-6-(thiazol-4-ylmethoxy)-1H-indol-2-yl)methyl)-1-methylcyclopropane-1-carboxamide], the IC50 in experiment [1] turned out to be 60 nM; in experiment [2], 45 nM.

As for `CC1(C(=O)NCc2cc3cc(Cl)c(OCc4ccon4)cc3[nH]2)CCC1` [Compound 504, N-((5-chloro-6-(isoxazol-3-ylmethoxy)-1H-indol-2-yl)methyl)-1-methylcyclobutane-1-carboxamide], the IC50 in experiment [1] stood at 391 nM; in experiment [2], 406 nM.

Regarding `CCC(=O)NCc1cc2cc(Cl)c(OCc3cscn3)cc2[nH]1` [Compound 146, N-((5-chloro-6-(thiazol-4-ylmethoxy)-1H-indol-2-yl)methyl)propionamide], the concentration for half-maximal inhibition (IC50) in experiment [1] was determined as 60 nM; in experiment [2], 36 nM.

In the case of `Cc1cnc(COc2cc3[nH]c(CNC(=O)C4(C)CC4)cc3cc2Cl)s1` [Compound 63, N-((5-chloro-6-((5-methylthiazol-2-yl)methoxy)-1H-indol-2-yl)methyl)-1-methylcyclopropane-1-carboxamide], the IC50 turned out to be 299 nM in experiment [1] and 56 nM in experiment [2].
